What was measured:
Format in all cases: cell-based
[1] = biological target: Serotonin transporter (SERT) (Homo sapiens (Human), UniProt P31645); test: Serotonin transporter (SERT) uptake inhibition, [3H]-Serotonin uptake in HEK cells; conditions: HEK cells expressing recombinant SERT, [3H]-Serotonin 10 nM; for inhibition at 10 µM / inhibition at 100 µM: HEK293; for inhibition at 10 µM: 10 μM test compound; for inhibition at 100 µM: 100 μM test compound
Procedure: Serotonin transporter (SERT) Uptake Inhibition: Compound activity was assessed using an in vitro assay. Briefly, HEK cells expressing recombinant SERT were plated at 50,000 cells/well on a 96 well plate pre-coated with Matrigel one day prior to the experiment. Culture medium (DMEM/FBS) was removed from each well, and 30 μl of assay buffer (Tris-HCl 50 mM, EDTA 4 mM, BDA 0.1%) with the desired concentration of test compound was added. The plate was incubated at 37° C. for 15 minutes. Assay buffer (30 μl) containing the same concentration of compound diluted in [3H]-Serotonin uptake buffer (final concentration 10 nM) was added to each well and the plate was incubated at 37° C. for 5 minutes. The reaction mixture was removed, and the cells were washed (2×) with 100 μl ice-cold assay buffer. Lysis buffer (50 μl) was added to the cells followed by a 5 minute incubation with gentle shaking at room temperature. The lysate was transferred to a 96 well isoplate. Optiphase supermix (100 μl) was added to each well and was thoroughly mixed. Radioactivity was counted with Microbeta Counter and reported as counts per minute (CPM). Fluoxetine was used as a control to measure non-specific uptake and for data normalization. Percent inhibition of [3H]-Serotonin uptake is based on the calculation: 100×(1−(CPMtest sample−CPMnon-specific uptake)/(CPMMAX−CPMMIN)).

[2] = biological target: Dopamine transporter (DAT) (Homo sapiens (Human), UniProt Q01959); test: Dopamine transporter (DAT) uptake inhibition, [3H]-dopamine uptake in HEK cells; conditions: HEK cells expressing recombinant DAT; [3H]-dopamine 20 nM
Procedure: (§1) Dopamine transporter (DAT) Uptake Inhibition: Compound activity was assessed using a convenient in vitro assay. Briefly, HEK cells expressing recombinant DAT were plated at 50,000 cells/well on a 96 well plate pre-coated with Matrigel one day prior to the experiment. Culture medium (DMEM/FBS) was removed and 30 μl of assay buffer (Tris-HCl 50 mM, EDTA 4 mM, BDA 0.1%) with the desired concentration of test compound was added. The plate was incubated at 37° C. for 15 minutes. Assay buffer (30 μl) containing the same concentration of compound diluted in [3H]-Dihydroxyphenylethylamine (dopamine) uptake buffer (final concentration 20 nM) was added to each well and the plate was incubated at 37° C. for 5 minutes. The reaction mixture was removed, and the cells were washed with 100 μl ice-cold assay buffer twice. Lysis buffer (50 μl) was added to the cells followed by a 5 minute incubation with gentle shaking at room temperature. The lysate was transferred to a 96 well isoplate. Optiphase supermix (100 μl) was added to each well with complete mixing. Radioactivity was counted with Microbeta Counter and reported as CPM. Nomifensine was used as a control to measure non-specific uptake and for data normalization. Percent inhibition of [3H]-Dopamine uptake calculations: 100×(1−(CPMtest sample−CPMnon-specific uptake)/(CPMMAX−CPMMIN)).

[3] = biological target: Norepinephrine transporter (NET) (Homo sapiens (Human), UniProt P23975); test: Norepinephrine transporter (NET) uptake inhibition, [3H]-Norepinephrine uptake in HEK cells; conditions: HEK cells expressing recombinant NET; [3H]-Norepinephrine 20 nM
Procedure: as §1, with “Norepinephrine” for “Dopamine”, “(NET)” for “(DAT)”, “NET” for “DAT”, “[3H]-Norepinephrine” for “[3H]-Dihydroxyphenylethylamine (dopamine)”, “Desipramine” for “Nomifensine”, “[3H]-Norepinephrine” for “[3H]-Dopamine”

| Compound | inhibition at 10 µM [1] | inhibition at 100 µM [1] | IC50 [1] | IC50 [2] | IC50 [3] |
| --- | --- | --- | --- | --- | --- |
| CNC(C)Cc1ccc2occ(F)c2c1 (stereo not drawn) [Compound 2, 1-(3-fluorobenzofuran-5-yl)-N-methylpropan-2-amine] | 64.7% | 99% | 5.72 µM | 9.59 µM | 5.02 µM |
| CNC(C)Cc1ccc2c(c1)OCO2 (stereo not drawn) [MDMA, 3,4-Methylenedioxymethamphetamine, reference compound] | 53.3% | 98% | 3.35 µM | 5.25 µM | 1.42 µM |
| CC(N)Cc1ccc2occ(F)c2c1 (stereo not drawn) [Compound 1, 1-(3-fluorobenzofuran-5-yl)propan-2-amine] | 72.7% | 97.9% | 6.75 µM | 15.6 µM | 4.73 µM |
